Source: patent US8648066B2 (Exelixis, Inc., priority 2009, dated 2014)

Molecular target: mTOR/GbL/Raptor (mTORC1) (Homo sapiens, UniProt P42345)
Assay: mTOR/GbL/Raptor (mTORC1) ELISA assay
Format: biochemical
Conditions: phosphorylation of 4E-BP1; 0.2 nM mTORC1, 10 μM ATP; read-out: IC50 in this assay (mTORC1 ELISA)
How it was run: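 ELISA read-out: phospho-4E-BP1 captured on Ni-chelate plates and detected with anti-phospho antibody plus HRP-anti-IgG luminescence. The kinase step ran 120 min at ambient temperature with 0.2 nM human mTORC1, 10 µM ATP, 50 nM His-4E-BP1, 10 mM MnCl2, pH 7.2 HEPES.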

Row | SMILES | IC50
1 | CC1(C)CCc2ncnc(N3CCOc4ccc(-c5cnc(N)c(S(=O)(=O)NCC6CCCNC6)c5)cc4C3)c2C1 (stereo not drawn) [Example 377, 2-amino-5-[4-(6,6-dimethyl-5,6,7,8-tetrahydroquinazolin-4-yl)-2,3,4,5-tetrahydro-1,4-benzoxazepin-7-yl]-N-(piperidin-3-ylmethyl)pyridine-3-sulfonamide] | 0.05 to 0.25 µM
2 | CC1(C)CCc2ncnc(N3CCOc4ccc(-c5cnc(N)c(S(=O)(=O)N6C7CCC6CC(N)C7)c5)cc4C3)c2C1 (stereo not drawn) [Example 575, 8-({2-amino-5-[4-(6,6-dimethyl-5,6,7,8-tetrahydroquinazolin-4-yl)-2,3,4,5-tetrahydro-1,4-benzoxazepin-7-yl]pyridin-3-yl}sulfonyl)-8-azabicyclo[3.2.1]octan-3-amine] | 0.01 to 0.05 µM
3 | CC1(C)CCc2ncnc(N3CCOc4ccc(-c5cnc(N)c(S(C)(=O)=O)c5)cc4C3)c2C1 [Example 512, 5-[4-(6,6-dimethyl-5,6,7,8-tetrahydroquinazolin-4-yl)-2,3,4,5-tetrahydro-1,4-benzoxazepin-7-yl]-3-(methylsulfonyl)pyridin-2-amine] | 0.01 to 0.05 µM
4 | Cc1nc(CN(C)C)nc(N2CCOc3ccc(-c4cnc5sc(N)nc5c4)cc3C2)c1C(C)C [Example 674, 6-(4-{2-[(dimethylamino)methyl]-6-methyl-5-(1-methylethyl)pyrimidin-4-yl}-2,3,4,5-tetrahydro-1,4-benzoxazepin-7-yl)[1,3]thiazolo[5,4-b]pyridin-2-amine] | 0.01 to 0.05 µM
5 | CC1(C)CCc2ncnc(N3CCOc4ccc(-c5cnc6sc(N)nc6c5)cc4C3)c2C1 [Example 248, 6-[4-(6,6-dimethyl-5,6,7,8-tetrahydroquinazolin-4-yl)-2,3,4,5-tetrahydro-1,4-benzoxazepin-7-yl][1,3]thiazolo[5,4-b]pyridin-2-amine] | ≤ 0.01 µM
6 | CC1(C)CCc2ncnc(N3CCOc4ccc(-c5cnc(N)c(S(=O)(=O)NCC(N)=O)c5)cc4C3)c2C1 [Example 636, N~2~-({2-amino-5-[4-(6,6-dimethyl-5,6,7,8-tetrahydroquinazolin-4-yl)-2,3,4,5-tetrahydro-1,4-benzoxazepin-7-yl]pyridin-3-yl}sulfonyl)glycinamide] | 0.01 to 0.05 µM
7 | CC1(C)CCc2ncnc(N3CCOc4ccc(-c5cnc(N)c(S(=O)(=O)CC(O)CO)c5)cc4C3)c2C1 (stereo not drawn) [Example 431, 3-({2-amino-5-[4-(6,6-dimethyl-5,6,7,8-tetrahydroquinazolin-4-yl)-2,3,4,5-tetrahydro-1,4-benzoxazepin-7-yl]pyridin-3-yl}sulfonyl)propane-1,2-diol] | 0.01 to 0.05 µM
8 | CCN(C)S(=O)(=O)c1cc(-c2ccc3c(c2)CN(c2ncnc4c2CC(C)(C)CC4)CCO3)cnc1N [Example 395, 2-amino-5-[4-(6,6-dimethyl-5,6,7,8-tetrahydroquinazolin-4-yl)-2,3,4,5-tetrahydro-1,4-benzoxazepin-7-yl]-N-ethyl-N-methylpyridine-3-sulfonamide] | 0.05 to 0.25 µM
9 | CC(C)(CN)CNS(=O)(=O)c1cc(-c2ccc3c(c2)CN(c2ncnc4c2CC(C)(C)CC4)CCO3)cnc1N [Example 411, 2-amino-N-(3-amino-2,2-dimethylpropyl)-5-[4-(6,6-dimethyl-5,6,7,8-tetrahydroquinazol-4-yl)-2,3,4,5-tetrahydro-1,4-benzoxazepin-7-yl]pyridine-3-sulfonamide] | 0.01 to 0.05 µM
10 | COCc1nc2c(c(N3CCOc4ccc(-c5cnc6[nH]c(C)nc6c5)cc4C3)n1)CC(C)(C)CC2 [Example 508, 4-{6,6-dimethyl-2-[(methyloxy)methyl]-5,6,7,8-tetrahydroquinazolin-4-yl}-7-(2-methyl-3H-imidazo[4,5-b]pyridin-6-yl)-2,3,4,5-tetrahydro-1,4-benzoxazepine] | ≤ 0.01 µM
11 | Cc1nc(CN(C)C)nc(N2CCOc3ccc(-c4ccc5scnc5c4)cc3C2)c1Cc1ccc(F)cc1 [Example 336, 1-{4-[7-(1,3-benzothiazol-5-yl)-2,3-dihydro-1,4-benzoxazepin-4(5H)-yl]-5-[(4-fluorophenyl)methyl]-6-methylpyrimidin-2-yl}-N,N-dimethylmethanamine] | 0.05 to 0.25 µM
12 | CN1CCN(S(=O)(=O)c2cc(-c3ccc4c(c3)CN(c3ncnc5c3CC(C)(C)CC5)CCO4)cnc2N)CC1 [Example 516, 5-[4-(6,6-dimethyl-5,6,7,8-tetrahydroquinazolin-4-yl)-2,3,4,5-tetrahydro-1,4-benzoxazepin-7-yl]-3-[(4-methylpiperazin-1-yl)sulfonyl]pyridin-2-amine] | 0.05 to 0.25 µM
13 | Cc1nc2cc(-c3ccc4c(c3)CN(c3nc(N)nc(C)c3Cc3ccc(F)cc3)CCO4)cnc2[nH]1 [Example 690, 5-[(4-fluorophenyl)methyl]-4-methyl-6-[7-(2-methyl-3H-imidazo[4,5-b]pyridin-6-yl)-2,3-dihydro-1,4-benzoxazepin-4(5H)-yl]pyrimidin-2-amine] | ≤ 0.01 µM

Now from value to molecule:

Row | IC50 | SMILES
14 | ≥ 2 µM | COc1c(OCCN(C)C)ccc2c(N3CCOc4ccc(-c5ccc6nc(C)[nH]c6c5)cc4C3)ncnc12 [Example 165, N,N-dimethyl-2-({4-[7-(2-methyl-1H-benzimidazol-6-yl)-2,3-dihydro-1,4-benzoxazepin-4(5H)-yl]-8-(methyloxy)quinazolin-7-yl}oxy)ethanamine]
15 | 0.05 to 0.25 µM | Nc1nc2ncc(-c3ccc4c(c3)CN(c3ncnc5cccnc35)CCO4)cc2[nH]1 [Example 227, 6-(4-pyrido[3,2-d]pyrimidin-4-yl-2,3,4,5-tetrahydro-1,4-benzoxazepin-7-yl)-1H-imidazo[4,5-b]pyridin-2-amine]
16 | 0.05 to 0.25 µM | CCc1c(C(C)C)ncnc1N1CCOc2ccc(-c3ccc4nc(C)[nH]c4c3)cc2C1 [Example 61, 4-[5-ethyl-6-(1-methylethyl)pyrimidin-4-yl]-7-(2-methyl-1H-benzimidazol-6-yl)-2,3,4,5-tetrahydro-1,4-benzoxazepine]
17 | 0.05 to 0.25 µM | Cc1nc2ncc(-c3ccc4c(c3)CN(c3ncnc5c3CCC(CO)C5)CCO4)cc2[nH]1 (stereo not drawn) [Example 309, {4-[7-(2-methyl-1H-imidazo[4,5-b]pyridin-6-yl)-2,3-dihydro-1,4-benzoxazepin-4(5H)-yl]-5,6,7,8-tetrahydroquinazolin-7-yl}methanol]
18 | 1 to 2 µM | CCCc1nc2ccc(-c3ccc4c(c3)CN(c3ccnc5ccccc35)CCO4)cc2[nH]1 [Example 197, 7-(2-propyl-1H-benzimidazol-6-yl)-4-quinolin-4-yl-2,3,4,5-tetrahydro-1,4-benzoxazepine]
19 | 0.05 to 0.25 µM | CCc1ncnc(N2CCOc3ccc(-c4ccc5nc(C)[nH]c5c4)cc3C2)c1CC [Example 58, 4-(5,6-diethylpyrimidin-4-yl)-7-(2-methyl-1H-benzimidazol-6-yl)-2,3,4,5-tetrahydro-1,4-benzoxazepine]
20 | 0.01 to 0.05 µM | CCC1CCc2ncnc(N3CCOc4ccc(-c5ccc6nc(C)[nH]c6c5)cc4C3)c2C1 (stereo not drawn) [Example 68, 4-(6-ethyl-5,6,7,8-tetrahydroquinazolin-4-yl)-7-(2-methyl-1H-benzimidazol-6-yl)-2,3,4,5-tetrahydro-1,4-benzoxazepine]
21 | ≤ 0.01 µM | Nc1nc2ncc(-c3ccc4c(c3)CN(c3ncnc5ccc(Br)cc35)CCO4)cc2[nH]1 [Example 181, 6-[4-(6-brromoquinazolin-4-yl)-2,3,4,5-tetrahydro-1,4-benzoxazepin-7-yl]-1H-imidazo[4,5-b]pyridin-2-amine]
